Literature values, collected in patent US7147875B2, “Method and composition for relieving symptoms of arthritis and gout using fruit of miracles” (priority 2004, dated 2006).

In the case of COc1cc2c(c(OC)c1OC)-c1ccc(OC)c(=O)cc1[C@@H](NC(C)=O)CC2 [colchicine], the “Time until the pain is completely relieved” value (from starting treatment) is given as 48 h, the “Time until the pain subsides” value (from starting treatment) is given as no more than 12 h and the “Reducing pain, swelling and inflammation associated with acute gout attacks” value (in vivo) is given as “effective”. The “Uric acid levels in the bloodstream” value (in vivo) was “does not decrease”.
